Patent publication US9981950B2, “Triazoles as NR2B receptor inhibitors” (Janssen Pharmaceuticals, Inc., priority 2014, dated 2018)

Tests used:
rat NR1/NR2B receptor [1] = target: T1, rat NR1/NR2B receptor (Rattus norvegicus (Rat), UniProt P35439+Q00960); test: NR2B binding assay: inhibition of specific [3H]-Ifenprodil binding to the rat NR1/NR2B receptor; details: rat brain membranes, Hill-plot 2-parameter-model
Method: Inhibition of Specific Binding to the Rat NR1/NR2B Receptor
(§1) Male Wistar rats (180 to 200 g) were killed by suffocation in a CO2 chamber for two minutes. Whole brains without cerebellum were removed and dissected on ice, placed into closed vials and stored at −70° C.
Membrane fractions were prepared and tested using standard techniques. At the time of the assay, 1 g of the brains was placed into 25 ml of 50 mM Tris/10 mM EDTA buffer, pH 7.1, (25 vol. per g of original tissue) and homogenized for 30 sec at 20000 rpm with an Ultraturrax T25 (Jahnke & Kunkel, IKA-Labortechnik, Staufen, Germany). The homogenate was centrifuged at 4° C. for 10 min at 48000 g (OPTIMA L-70, Beckman, Palo Alto, Calif. 94304, USA).
The supernatant was discarded and the pellet was homogenized on ice for 30 sec at 20000 rpm with an Ultraturrax and again centrifuged at 48000 g for 30 minutes at 4° C. The resulted pellet was resuspended in 25 ml of 50 mM Tris/10 mM EDTA buffer, homogenized for 30 sec with an Ultraturrax, aliquoted, frozen at −70° C. and stored until use.
(§2) After thawing on the day of the assay, a 5 ml membrane aliquot was centrifuged at 48000 g for 30 min at 4° C. The pellet was resuspended in 5 ml of 5 mM Tris/1 mM EDTA buffer, pH 7.4, homogenized for 30 sec at 20000 rpm with an Ultraturrax and centrifuged at 48000 g for 30 min at 4° C. This was repeated twice. The final pellet was homogenized in 5 ml of 5 mM Tris/l mM EDTA buffer at 4° C. with an Ultraturrax and used for the Ifenprodil-binding assay as described in the following.
Nonspecific binding was estimated in the presence of […] CP101.606. The samples were incubated for 60 min. at 4° C.
The incubation was terminated by filtration of the membrane preparations using Filtermat B (Pharmacia, Uppsala Sweden) and a Micro Cell Harvester (Skatron, Lier, Norway). The Filtermat B had been presoaked with 1% polyethylene imine and carefully washed with 50 mM Tris/HCl-buffer pH 7.7 after the filtration to separate free and bound radioactivity.
The optimal amount of membrane preparation in the assay had been determined and optimized for each membrane preparation separately before the test.
For pipetting of the incubation mixture we routinely used the robot Biomek2000 (Fa. Beckman).
For determination of IC50 values the Hill-plot, 2-parameter-model was used.

hERG-receptor = hERG-receptor (Homo sapiens (Human), UniProt Q12809); test: HERGBD: inhibition of specific 3H-Dofetilide binding to the hERG-receptor; details: HEK cell membranes with human ERG, Hill-plot 2-parameter-model
Sequence of hERG-receptor (Q12809 whole entry): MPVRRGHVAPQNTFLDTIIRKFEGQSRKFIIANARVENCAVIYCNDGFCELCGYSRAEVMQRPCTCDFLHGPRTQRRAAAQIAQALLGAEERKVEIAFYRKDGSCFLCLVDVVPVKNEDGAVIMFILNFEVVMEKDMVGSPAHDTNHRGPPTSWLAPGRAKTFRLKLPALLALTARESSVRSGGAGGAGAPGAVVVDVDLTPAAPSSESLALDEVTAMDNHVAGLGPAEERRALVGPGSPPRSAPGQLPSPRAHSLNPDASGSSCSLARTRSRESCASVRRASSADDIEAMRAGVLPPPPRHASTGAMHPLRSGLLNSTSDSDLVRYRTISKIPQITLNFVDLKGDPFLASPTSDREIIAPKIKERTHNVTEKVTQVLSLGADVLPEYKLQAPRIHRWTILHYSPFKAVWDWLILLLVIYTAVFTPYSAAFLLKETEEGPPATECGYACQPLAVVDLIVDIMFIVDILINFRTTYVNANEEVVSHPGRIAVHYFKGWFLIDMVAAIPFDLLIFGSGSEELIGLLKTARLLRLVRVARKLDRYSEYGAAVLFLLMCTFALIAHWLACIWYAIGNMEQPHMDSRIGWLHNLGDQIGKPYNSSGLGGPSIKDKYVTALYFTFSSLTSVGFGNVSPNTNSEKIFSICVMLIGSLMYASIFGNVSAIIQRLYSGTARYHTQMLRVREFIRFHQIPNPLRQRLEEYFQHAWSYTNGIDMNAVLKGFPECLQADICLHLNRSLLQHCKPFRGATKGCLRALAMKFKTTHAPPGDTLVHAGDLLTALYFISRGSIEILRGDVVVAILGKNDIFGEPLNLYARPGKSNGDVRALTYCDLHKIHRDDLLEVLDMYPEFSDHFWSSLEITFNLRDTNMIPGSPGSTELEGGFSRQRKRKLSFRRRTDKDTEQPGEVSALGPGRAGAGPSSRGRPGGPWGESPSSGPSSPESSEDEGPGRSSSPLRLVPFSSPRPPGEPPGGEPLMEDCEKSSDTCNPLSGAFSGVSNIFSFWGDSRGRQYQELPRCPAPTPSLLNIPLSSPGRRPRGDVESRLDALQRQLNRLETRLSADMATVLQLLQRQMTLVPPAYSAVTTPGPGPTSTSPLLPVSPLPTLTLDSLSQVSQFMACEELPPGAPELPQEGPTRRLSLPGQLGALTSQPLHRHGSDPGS
Method: Inhibition of Specific Binding to the hERG-Receptor (HERGBD)
A HEK cell line with stable transfected human ERG receptor was used for the assay. The cells were grown adherently and maintained in DULBECCOS' MEM medium with 10% FBS, 1% non-essential amino acids, 1% Penicillin/Streptomycin and 400 μg/ml G418 (Calbiochem).
For binding assays and membrane preparations the cell culture medium was removed, cells were washed with PBS. Crude membranes for radioligand binding experiments were prepared by scraping the cells off the dishes in ice cold 20 mM HEPES/0.1 mM KCl/pH 7.2. The cell suspension was homogenized on ice (Ultra turrax, 3×20 sec.) and the homogenate was spun for 10 min (1° C., 1000 g, OPTIMA, SW28, 2800 U/min). The supernatant was than centrifuged for 40 min at 100000 g (1° C., OPTIMA, SW28, 23000 U/min). The membrane pellet was resuspended in 20 mM HEPES/0.1 mM KCl/pH 7.2, frozen and stored at −80° C.
After thawing on the day of the assay, the membrane suspension was diluted further with 20 mM HEPES/0.1 mM KCl/pH 7.2.
The incubation mixture of 200 μl contained 1.5 nmol/l 3H-Dofetilide, optimized amount of membrane preparation, 20 mM HEPES/0.1 mM KCl/(pH 7.2) and inhibitor in 1% DMSO. Nonspecific binding was estimated in the presence of […] Dofetilide. The samples were incubated for 90 min. at RT.
Binding was terminated by filtration of the incubated membrane preparations using Filtermat B (Pharmacia, Uppsala Sweden) and a Micro Cell Harvester (Skatron, Lier, Norway). The Filtermat B had been presoaked with 1% polyethylenimine and carefully washed with 0.05 M Tris/HCl-buffer pH=7.7 after the filtration to separate free and bound radioactivity. The filters were counted in a scintillation counter (Betaplate 1205, Berthold, Wildbad, Germany) in order to determine the specific binding of [^3H]-Dofetilide.
The optimal amount of membrane preparation in the assay was determined and optimized for each membrane preparation separately in front of using the membranes in compound testing.
For pipetting of the incubation mixture we routinely use the robot Biomek2000 (Fa. Beckman).

rat NR1/NR2B receptor [2] = target: T1, rat NR1/NR2B receptor; test: RRNR2BB: inhibition of specific binding to the rat NR1/NR2B receptor; details: [3H]-Ifenprodil binding, rat brain membranes, Hill-plot 2-parameter-model
Method: RRNR2BB—Inhibition of Specific Binding to the Rat NR1/NR2B Receptor
as §1
Membrane fractions were prepared and tested using standard techniques. At the time of the assay, 1 g of the brains were placed into 25 ml of 50 mM Tris/10 mM EDTA buffer, pH=7.1, (25 vol. per g of original tissue) and was homogenized for 30 sec at 20000 U/min with an Ultraturrax T25 (Jahnke & Kunkel, IKA-Labortechnik, Staufen, Germany). The homogenate was centrifuged at 4° C. for 10 min at 48000 g (OPTIMA L-70, Beckman, Palo Alto, Calif. 94304, USA). The supernatant was discarded and the pellet was homogenized on ice for 30 sec at 20000 U/min with an Ultraturrax and again centrifuged at 48000 g for 30 minutes at 4° C. The resultant pellet was resuspended in 25 ml of 50 mM Tris/10 mM EDTA buffer, homogenized for 30 sec with an Ultraturrax, aliquoted, frozen at −70° C. and stored until use
as §2, with “aliquote” for “aliquot”, “pH=7.4,” for “pH 7.4,”, “U/min” for “rpm”, “This step” for “This”, “Tris/mM” for “Tris/l mM”, “assay.” for “assay as described in the following.”
Nonspecific binding was estimated in the presence of 10 M CP101.606. The samples were incubated for 60 min. at 4° C.
Binding was terminated by filtration of the incubated membrane preparations using Filtermat B (Pharmacia, Uppsala Sweden) and a Micro Cell Harvester (Skatron, Lier, Norway). The Filtermat B had been presoaked with 1% polyethylenimine and carefully washed with […] Tris/HCl-buffer pH=7.7 after the filtration to separate free and bound radioactivity.
For pipetting of the incubation mixture the robot Biomek2000 (Fa. Beckman) was used.
The IC50 values in the tables below were determined using the Hill-plot, 2-parameter-model.

T1 sequence (Q00960 27-1482, other chains not shown): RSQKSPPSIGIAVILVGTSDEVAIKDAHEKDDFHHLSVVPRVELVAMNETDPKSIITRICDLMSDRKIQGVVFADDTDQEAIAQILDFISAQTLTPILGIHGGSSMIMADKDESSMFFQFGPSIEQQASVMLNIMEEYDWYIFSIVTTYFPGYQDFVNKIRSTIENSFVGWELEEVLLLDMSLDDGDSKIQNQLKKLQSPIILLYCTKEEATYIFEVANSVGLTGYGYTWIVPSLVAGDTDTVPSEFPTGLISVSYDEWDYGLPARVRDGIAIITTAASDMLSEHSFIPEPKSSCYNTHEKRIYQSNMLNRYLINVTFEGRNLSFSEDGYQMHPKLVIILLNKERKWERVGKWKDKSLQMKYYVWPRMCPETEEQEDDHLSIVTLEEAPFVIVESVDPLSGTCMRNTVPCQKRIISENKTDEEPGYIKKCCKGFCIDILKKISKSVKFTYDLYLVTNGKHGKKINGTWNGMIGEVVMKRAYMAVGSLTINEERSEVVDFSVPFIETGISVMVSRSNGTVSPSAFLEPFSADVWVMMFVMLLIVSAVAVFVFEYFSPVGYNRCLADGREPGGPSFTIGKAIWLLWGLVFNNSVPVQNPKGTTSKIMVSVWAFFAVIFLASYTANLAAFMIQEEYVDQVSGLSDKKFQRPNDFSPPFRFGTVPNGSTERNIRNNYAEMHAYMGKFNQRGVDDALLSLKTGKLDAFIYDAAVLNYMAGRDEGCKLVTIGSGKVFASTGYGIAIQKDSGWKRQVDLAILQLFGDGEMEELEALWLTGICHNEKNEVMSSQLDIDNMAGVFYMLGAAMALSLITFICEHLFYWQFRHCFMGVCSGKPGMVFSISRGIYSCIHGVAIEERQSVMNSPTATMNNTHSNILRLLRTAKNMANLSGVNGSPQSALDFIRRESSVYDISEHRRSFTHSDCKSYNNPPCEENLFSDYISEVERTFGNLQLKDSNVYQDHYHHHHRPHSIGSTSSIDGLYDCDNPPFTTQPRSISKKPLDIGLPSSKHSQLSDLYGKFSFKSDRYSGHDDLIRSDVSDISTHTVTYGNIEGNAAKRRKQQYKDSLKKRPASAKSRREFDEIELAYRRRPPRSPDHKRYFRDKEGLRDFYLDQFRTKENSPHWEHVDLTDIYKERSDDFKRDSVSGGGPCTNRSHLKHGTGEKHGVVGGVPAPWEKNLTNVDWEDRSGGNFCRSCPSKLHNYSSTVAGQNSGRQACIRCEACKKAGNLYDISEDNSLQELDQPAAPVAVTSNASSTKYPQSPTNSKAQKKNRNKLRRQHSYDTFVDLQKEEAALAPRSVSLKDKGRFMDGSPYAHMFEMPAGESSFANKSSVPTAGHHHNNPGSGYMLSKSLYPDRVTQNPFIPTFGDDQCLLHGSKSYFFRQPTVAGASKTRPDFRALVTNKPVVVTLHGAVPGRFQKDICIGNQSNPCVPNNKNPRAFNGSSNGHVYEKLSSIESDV

Work on `Cc1nccn1Cc1cn(-c2ccc(Cl)c(C(F)F)c2)nn1` [Example 89, 1-(4-Chloro-3-difluoromethyl-phenyl)-4-(2-methyl-imidazol-1-ylmethyl)-1H-[1,2,3]triazole] yielded an IC50 (rat NR1/NR2B receptor [1]) of 3.37 nM, an IC50 (hERG-receptor) of 8520 nM and an IC50 (rat NR1/NR2B receptor [2]) of 3.37 nM.

`Cc1nccn1Cc1cn(-c2ccc(F)c(Cl)c2)nn1` [Example 51, 1-(3-Chloro-4-fluoro-phenyl)-4-(2-methyl-imidazol-1-ylmethyl)-1H-[1,2,3]triazole] was tested, and the IC50 (rat NR1/NR2B receptor [1]) was 7.01 nM, the IC50 (hERG-receptor) was 4970 nM and the IC50 (rat NR1/NR2B receptor [2]) was 7.01 nM.

`COc1cc(F)ccc1-n1cc(Cn2ccnc2C)nn1` [Example 52, 1-(4-Fluoro-2-methoxy-phenyl)-4-(2-methyl-imidazol-1-ylmethyl)-1H-[1,2,3]triazole] showed an IC50 (rat NR1/NR2B receptor [1]) of 1180 nM, an IC50 (hERG-receptor) of 41700 nM and an IC50 (rat NR1/NR2B receptor [2]) of 1180 nM.

`FC(F)(F)c1cc(-n2cc(Cn3ccnc3C3CC3)nn2)ccc1Cl` [Example 66, 1-(4-Chloro-3-trifluoromethyl-phenyl)-4-(2-cyclopropyl-imidazol-1-ylmethyl)-1H-[1,2,3]triazole] was tested, and the IC50 (rat NR1/NR2B receptor [1]) was 38 nM, the IC50 (hERG-receptor) was 3540 nM and the IC50 (rat NR1/NR2B receptor [2]) was 38 nM.

`CCCc1nccn1Cc1cn(-c2ccc(Cl)c(Cl)c2)nn1` [Example 34, 1-(3,4-Dichloro-phenyl)-4-(2-propyl-imidazol-1-ylmethyl)-1H-[1,2,3]triazole] was tested, and the IC50 (rat NR1/NR2B receptor [1]) was 7.67 nM, the IC50 (hERG-receptor) was 1120 nM and the IC50 (rat NR1/NR2B receptor [2]) was 7.67 nM.

For `CC(C)(C)c1nccn1Cc1cn(-c2ccc(Cl)c(OC(F)F)c2)nn1` [Example 95, 4-(2-tert-Butyl-imidazol-1-ylmethyl)-1-(4-chloro-3-difluoromethoxy-phenyl)-1H-[1,2,3]triazole], the IC50 (rat NR1/NR2B receptor [1]) was 72.9 nM, the IC50 (hERG-receptor) was 5840 nM and the IC50 (rat NR1/NR2B receptor [2]) was 72.9 nM.

For `Cc1cc(-n2cc(Cn3ccnc3C)nn2)ccc1F` [Example 54, 1-(4-Fluoro-3-methyl-phenyl)-4-(2-methyl-imidazol-1-ylmethyl)-1H-[1,2,3]triazole], the IC50 (rat NR1/NR2B receptor [1]) was 5.32 nM, the IC50 (hERG-receptor) was 6210 nM and the IC50 (rat NR1/NR2B receptor [2]) was 5.32 nM.

`Cc1nccn1Cc1cn(-c2ccc(C(F)(F)F)cc2)nn1` [Example 59, 4-(2-Methyl-imidazol-1-ylmethyl)-1-(4-trifluoromethyl-phenyl)-1H-[1,2,3]triazole] showed an IC50 (rat NR1/NR2B receptor [1]) of 46 nM, an IC50 (hERG-receptor) of 6270 nM and an IC50 (rat NR1/NR2B receptor [2]) of 46 nM.

In the case of `CCc1nccn1Cc1cn(-c2ccc(Cl)c(OC(F)F)c2)nn1` [Example 96, 1-(4-Chloro-3-difluoromethoxy-phenyl)-4-(2-ethyl-imidazol-1-ylmethyl)-1H-[1,2,3]triazole], the IC50 (rat NR1/NR2B receptor [1]) is reported as 1.6 nM, the IC50 (hERG-receptor) is reported as 4410 nM and the IC50 (rat NR1/NR2B receptor [2]) is reported as 1.6 nM.

`Cc1nccn1Cc1cn(-c2cccc(S(C)(=O)=O)c2)nn1` [Example 77, 1-(3-Methanesulfonyl-phenyl)-4-(2-methyl-imidazol-1-ylmethyl)-1H-[1,2,3]triazole] was tested, and the IC50 (rat NR1/NR2B receptor [1]) was 615 nM, the IC50 (hERG-receptor) was 150000 nM and the IC50 (rat NR1/NR2B receptor [2]) was 615 nM.

With `FC(F)c1cc(-n2cc(Cn3ccnc3C3CC3)nn2)ccc1Cl` [Example 90, 1-(4-Chloro-3-difluoromethyl-phenyl)-4-(2-cyclopropyl-imidazol-1-ylmethyl)-1H-[1,2,3]triazole] the IC50 (rat NR1/NR2B receptor [1]) was 15.4 nM, the IC50 (hERG-receptor) was 5350 nM and the IC50 (rat NR1/NR2B receptor [2]) was 15.4 nM.

For `CC(C)(C)c1nccn1Cc1cn(-c2ccc(Cl)c(Cl)c2)nn1` [Example 38, 4-(2-tert-Butyl-imidazol-1-ylmethyl)-1-(3,4-dichloro-phenyl)-1H-[1,2,3]triazole], the IC50 (rat NR1/NR2B receptor [1]) was 526 nM, the IC50 (hERG-receptor) was 5680 nM and the IC50 (rat NR1/NR2B receptor [2]) was 526 nM.

With `Cc1nc2ccccc2n1Cc1cn(-c2ccc(Cl)c(Cl)c2)nn1` [Example 117, 1-[[1-(3,4-dichlorophenyl)triazol-4-yl]methyl]-2-methyl-benzimidazole] the IC50 (rat NR1/NR2B receptor [1]) was 141 nM, the IC50 (hERG-receptor) was 3090 nM and the IC50 (rat NR1/NR2B receptor [2]) was 141 nM.

Work on `FC(F)(F)c1ccc(-n2cc(Cn3ccnc3C3CC3)nn2)cc1` [Example 69, 4-(2-Cyclopropyl-imidazol-1-ylmethyl)-1-(4-trifluoromethyl-phenyl)-1H-[1,2,3]triazole] yielded an IC50 (rat NR1/NR2B receptor [1]) of 173 nM, an IC50 (hERG-receptor) of 4410 nM and an IC50 (rat NR1/NR2B receptor [2]) of 173 nM.

In the case of `Cc1cc(-n2cc(Cn3ccnc3C)nn2)ccc1Cl` [Example 55, 1-(4-Chloro-3-methyl-phenyl)-4-(2-methyl-imidazol-1-ylmethyl)-1H-[1,2,3]triazole], the IC50 (rat NR1/NR2B receptor [1]) is reported as 1.64 nM, the IC50 (hERG-receptor) is reported as 4710 nM and the IC50 (rat NR1/NR2B receptor [2]) is reported as 1.64 nM.

`FC(F)(F)Oc1cccc(-n2cc(Cn3ccnc3C3CC3)nn2)c1` [Example 67, 4-(2-Cyclopropyl-imidazol-1-ylmethyl)-1-(3-trifluoromethoxy-phenyl)-1H-[1,2,3]triazole] gave an IC50 (rat NR1/NR2B receptor [1]) of 34.5 nM, an IC50 (hERG-receptor) of 2550 nM and an IC50 (rat NR1/NR2B receptor [2]) of 34.5 nM.

`Cc1nccn1Cc1cn(-c2ccc(F)c(OC(F)F)c2)nn1` [Example 100, 1-(3-Difluoromethoxy-4-fluoro-phenyl)-4-(2-methyl-imidazol-1-ylmethyl)-1H-[1,2,3]triazole] gave an IC50 (rat NR1/NR2B receptor [1]) of 1.9 nM, an IC50 (hERG-receptor) of 12800 nM and an IC50 (rat NR1/NR2B receptor [2]) of 1.9 nM.

For `CCCCc1nccn1Cc1cn(-c2ccc(Cl)cc2)nn1` [Example 27, 4-(2-Butyl-imidazol-1-ylmethyl)-1-(4-chloro-phenyl)-1H-[1,2,3]triazole], the IC50 (rat NR1/NR2B receptor [1]) was 38.9 nM, the IC50 (hERG-receptor) was 570 nM and the IC50 (rat NR1/NR2B receptor [2]) was 38.9 nM.

`CC(C)c1nccn1Cc1cn(-c2ccc(Cl)c(C(F)F)c2)nn1` [Example 92, 1-(4-Chloro-3-difluoromethyl-phenyl)-4-(2-isopropyl-imidazol-1-ylmethyl)-1H-[1,2,3]triazole] showed an IC50 (rat NR1/NR2B receptor [1]) of 5.24 nM, an IC50 (hERG-receptor) of 11300 nM and an IC50 (rat NR1/NR2B receptor [2]) of 5.24 nM.
